{"source": "paper PMC4773385", "about": "“Drug design from the cryptic inhibitor envelope” (Nature Communications, 2016)", "key": {"Escherichia coli W3110": {"tested_on": "Escherichia coli W3110", "assay": "MIC assay", "format": "cell-based", "conditions": "for MIC: E. coli"}, "[1]": {"tested_on": "Vibrio cholerae P4 (P27459DctxAB::KmR, SmR)", "assay": "MIC assay", "format": "cell-based", "parameters": "MIC: unit not given here"}, "Chlamydia trachomatis": {"tested_on": "Chlamydia trachomatis", "assay": "Minimal chlamydiacidal concentration (MCC)", "format": "cell-based", "parameters": "Minimal chlamydiacidal concentration (MCC), listed in MIC column: unit not given here"}, "Proteus mirabilis": {"tested_on": "Proteus mirabilis", "assay": "MIC assay", "format": "cell-based", "parameters": "MIC: unit not given here"}, "Enterobacter cloacae": {"tested_on": "Enterobacter cloacae", "assay": "MIC assay", "format": "cell-based", "parameters": "MIC: unit not given here"}, "Escherichia coli LpxC": {"biological_target": "T1, Escherichia coli LpxC (Escherichia coli, UniProt P0A725)", "T1 sequence (P0A725 1-305)": "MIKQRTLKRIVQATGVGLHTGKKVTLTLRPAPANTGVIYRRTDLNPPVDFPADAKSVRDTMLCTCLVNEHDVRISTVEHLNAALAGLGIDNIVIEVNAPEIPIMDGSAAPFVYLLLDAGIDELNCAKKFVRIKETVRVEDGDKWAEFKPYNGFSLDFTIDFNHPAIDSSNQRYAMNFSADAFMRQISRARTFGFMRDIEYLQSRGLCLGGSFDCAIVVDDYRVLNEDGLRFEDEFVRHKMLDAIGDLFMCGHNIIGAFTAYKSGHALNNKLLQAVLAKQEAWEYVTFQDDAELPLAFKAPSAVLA", "assay": "LpxC enzymatic assay (radiolabelled substrate, slow tight-binding kinetics)", "format": "biochemical", "method": "The radiolabelled substrate for the LpxC enzymatic assays, [α-^32P] UDP-3-O-[(R)-3-hydroxymyristoyl]-N-acetylglucosamine, and the unlabelled carrier substrate were prepared as previously described. […] Serial twofold dilutions of each inhibitor were prepared in DMSO and added to the reaction mixture with a 10-fold dilution. The assays were initiated by addition of purified LpxC protein into the reaction mix with 1:4 dilution to the final concentration as specified.\nThe KM value was determined by varying substrate concentrations from 0.4 to 50 μM with 0.2 nM of LpxC. To study the slow, tight-binding inhibition, LpxC activity was assessed in the presence of varying inhibitor concentrations. […] The following time-dependent equation was used to fit the data: […]\nThe Ki* was determined by analysing the rate of product accumulation after formation of the stable EI* complex. […] The Morrison's quadratic equation was used to fit the fractional activity data to determine Ki^*app:\nwhere [E]T and [I]T represent the total enzyme and inhibitor concentrations, respectively. The inhibition constant Ki* is converted from Ki^*app according to the following relationship:\nFor two-step slow-binding inhibition, kinetic parameters k5, k6 and Ki were extracted from curve fitting of experimental kobs values to inhibitor concentrations based on equations (5 and 6)."}, "[2]": {"tested_on": "Acinetobacter baumannii 17978", "assay": "MIC assay", "format": "cell-based"}, "[3]": {"tested_on": "Pseudomonas aeruginosa PAO1", "assay": "MIC assay", "format": "cell-based"}, "Morganella morganii": {"tested_on": "Morganella morganii", "assay": "MIC assay", "format": "cell-based"}, "[4]": {"tested_on": "Klebsiella pneumoniae 10031", "assay": "MIC assay", "format": "cell-based", "parameters": "MIC: unit not given here"}, "[5]": {"tested_on": "Salmonella typhimurium LT2", "assay": "MIC assay", "format": "cell-based"}, "[6]": {"conditions": "E. coli LpxC, 20 pM enzyme, 5 μM substrate, 30 °C, Morrison fit, read-out: Ki* (inhibition constant of the stable EI* complex)"}, "[7]": {"conditions": "fit of kobs vs inhibitor concentration, 30 μM substrate, 0.1 nM enzyme"}}, "note": "Like-named read-outs stand apart in the source and are kept apart here.", "data": [{"smiles": "C[C@@](O)(C(F)F)[C@H](NC(=O)c1ccc(C#CC#Cc2ccc(N)cc2)cc1)C(=O)NO", "note": "[LPC-058]", "values": [{"measurement": "Enhancement (MIC CHIR-090/MIC LPC-058)", "setting": "Escherichia coli W3110; Escherichia coli W3110", "value": 7.2}, {"measurement": "Enhancement (MIC LPC-011/MIC LPC-058)", "setting": "Escherichia coli W3110; Escherichia coli W3110", "value": 2.2}, {"measurement": "Enhancement (MIC CHIR-090/MIC LPC-058)", "setting": "[1]", "value": 31}, {"measurement": "Enhancement (MIC LPC-011/MIC LPC-058)", "setting": "[1]", "value": 3.9}, {"measurement": "MIC", "setting": "[1]", "value": 0.016}, {"measurement": "Minimal chlamydiacidal concentration (MCC), listed in MIC column", "setting": "Chlamydia trachomatis", "value": 0.08}, {"measurement": "Enhancement (MIC CHIR-090/MIC LPC-058)", "setting": "Chlamydia trachomatis; MCC", "value": 100}, {"measurement": "Enhancement (MIC LPC-011/MIC LPC-058)", "setting": "Chlamydia trachomatis; MCC", "value": 6.0}, {"measurement": "Enhancement (MIC CHIR-090/MIC LPC-058)", "setting": "Proteus mirabilis", "value": 32}, {"measurement": "Enhancement (MIC LPC-011/MIC LPC-058)", "setting": "Proteus mirabilis", "value": 5.0}, {"measurement": "MIC", "setting": "Proteus mirabilis", "value": 0.026}, {"measurement": "Enhancement (MIC CHIR-090/MIC LPC-058)", "setting": "Enterobacter cloacae", "value": 12}, {"measurement": "Enhancement (MIC LPC-011/MIC LPC-058)", "setting": "Enterobacter cloacae", "value": 2.0}, {"measurement": "MIC", "setting": "Enterobacter cloacae", "value": 0.026}, {"measurement": "enhancement of potency (Ki*) over CHIR-090", "setting": "Escherichia coli LpxC; E. coli LpxC", "value": 44, "unit": "fold"}, {"measurement": "enhancement of potency (Ki*) over LPC-011", "setting": "Escherichia coli LpxC; E. coli LpxC", "value": 7, "unit": "fold"}, {"measurement": "Ki", "setting": "Escherichia coli LpxC; [6]", "value": "3.5 ± 0.2", "unit": "pM"}, {"measurement": "k5 (forward rate from EI to EI*)", "setting": "Escherichia coli LpxC; [7]", "value": "0.39 ± 0.02", "unit": "min⁻¹"}, {"measurement": "k6 (reverse rate from EI* to EI)", "setting": "Escherichia coli LpxC; [7]", "value": "0.0014 ± 0.0001", "unit": "min⁻¹"}, {"measurement": "Ki", "setting": "Escherichia coli LpxC; fit of kobs vs inhibitor concentration, 30 μM substrate, 0.1 nM enzyme, Ki* constrained, read-out: Ki (inhibition constant of the initial encounter complex EI)", "value": "973 ± 128", "unit": "pM"}, {"measurement": "MIC", "setting": "[2]; Acinetobacter baumannii", "value": 0.39, "unit": "µg/mL"}, {"measurement": "Enhancement (MIC CHIR-090/MIC LPC-058)", "setting": "[2]; Acinetobacter baumannii 17978", "value": "> 128"}, {"measurement": "Enhancement (MIC LPC-011/MIC LPC-058)", "setting": "[2]; Acinetobacter baumannii 17978", "value": 25}, {"measurement": "Enhancement (MIC CHIR-090/MIC LPC-058)", "setting": "[3]", "value": 5.0}, {"measurement": "Enhancement (MIC LPC-011/MIC LPC-058)", "setting": "[3]", "value": 2.0}, {"measurement": "MIC", "setting": "[3]", "value": 0.167, "unit": "µg/mL"}, {"measurement": "Enhancement (MIC CHIR-090/MIC LPC-058)", "setting": "Morganella morganii", "value": 55}, {"measurement": "Enhancement (MIC LPC-011/MIC LPC-058)", "setting": "Morganella morganii", "value": 2.0}, {"measurement": "MIC", "setting": "Morganella morganii", "value": 0.019, "unit": "g/mL"}, {"measurement": "Enhancement (MIC CHIR-090/MIC LPC-058)", "setting": "[4]", "value": 13}, {"measurement": "Enhancement (MIC LPC-011/MIC LPC-058)", "setting": "[4]", "value": 3.8}, {"measurement": "MIC", "setting": "[4]", "value": 0.0026}, {"measurement": "Enhancement (MIC CHIR-090/MIC LPC-058)", "setting": "[5]", "value": 12}, {"measurement": "Enhancement (MIC LPC-011/MIC LPC-058)", "setting": "[5]", "value": 2.8}, {"measurement": "MIC", "setting": "[5]", "value": 0.021, "unit": "µg/mL"}]}, {"smiles": "C[C@@H](O)[C@H](NC(=O)c1ccc(C#CC#Cc2ccc(N)cc2)cc1)C(=O)NO", "note": "[LPC-011]", "values": [{"measurement": "MIC", "setting": "Escherichia coli W3110", "value": 0.04, "unit": "µg/mL"}, {"measurement": "MIC", "setting": "[1]", "value": 0.063}, {"measurement": "MIC", "setting": "Proteus mirabilis", "value": 0.13}, {"measurement": "MIC", "setting": "Enterobacter cloacae", "value": 0.052}, {"measurement": "MIC", "setting": "Morganella morganii", "value": 0.039, "unit": "g/mL"}, {"measurement": "MIC", "setting": "[4]", "value": 0.01}, {"measurement": "MIC", "setting": "[5]", "value": 0.06, "unit": "µg/mL"}]}, {"smiles": "CC(C)(N)[C@H](NC(=O)c1ccc(C#CC#Cc2ccc(N)cc2)cc1)C(=O)NO", "note": "[LPC-040]", "values": [{"measurement": "Ki", "setting": "Escherichia coli LpxC; [6]", "value": "12 ± 1", "unit": "pM"}]}, {"smiles": "CC(C)(O)[C@H](NC(=O)c1ccc(C#CC#Cc2ccc(N)cc2)cc1)C(=O)NO", "note": "[LPC-037]", "values": [{"measurement": "Ki", "setting": "Escherichia coli LpxC; [6]", "value": "14 ± 1", "unit": "pM"}]}, {"smiles": "C[C@](O)([C@H](NC(=O)c1ccc(C#CC#Cc2ccc(N)cc2)cc1)C(=O)NO)C(F)(F)F", "note": "[LPC-083]", "values": [{"measurement": "MIC", "setting": "Escherichia coli W3110", "value": 0.1, "unit": "µg/mL"}, {"measurement": "compromised inhibitory effect (Ki*) over parent compound LPC-037", "setting": "Escherichia coli LpxC; E. coli LpxC", "value": "ninefold"}, {"measurement": "inhibition constant worse than LPC-011", "setting": "Escherichia coli LpxC; E. coli LpxC", "value": "fivefold"}, {"measurement": "Ki", "setting": "Escherichia coli LpxC; [6]", "value": "125 ± 4", "unit": "pM"}]}]}
